Data as given in the NIST ThermoML archive (doi:10.1016/j.jct.2019.07.008).
Numbers after ± are expanded uncertainties.

Settings: Liquid, Ebulliometric method (Recirculating still)

Row | vapor or sublimation pressure (355.2 K) [kPa] | vapor or sublimation pressure (372.8 K) [kPa] | SMILES
1 | 100 ± 2 |  | CC(C)(C)O [2-methylpropan-2-ol]
2 |  | 100 ± 2 | O [water]
